# Experimental data: US20250019378A1, “PYRROLE[2,3-B]PYRIDINE DERIVATIVES AS TYRO3 INHIBITORS” (HALIA THERAPEUTICS, INC., priority 2021, published 2025)
# Biological target: recombinant human Tyro3 (Homo sapiens (Human), UniProt Q06418)
# Assay: Tyro3 Enzymatic Assay
# Type: biochemical
# Conditions: radiometric [32P]-ATP kinase assay, Poly(Glu, Tyr) substrate, 2 nM enzyme
# Procedure: Poly(Glu, Tyr) sodium salt (Glu:Tyr (4:1), quality level 200, molecular weight 5,000-20,000, obtained from Sigma Aldrich, catalogue #P7244, assay concentration 0.20 mg/mL) and recombinant human Tyro3 (obtained from ThermoFisher Scientific, catalogue #PV3828, assay concentration 2 nM) were mixed in assay buffer (20 mM Hepes pH 7.5, 10 mM MgCl2, […] EGTA, 0.02% Brij35, 0.02 mg/ml BSA, 0.1 mM Na3VO4, 2 mM DTT, 1% DMSO, with added MnCl2 at a final concentration of 2 mM). Compounds of interest (in DMSO, serial 3-fold dilution from 10 μM to 0.5 nM) or control (1% DMSO) were dispensed into the kinase reaction mixture by Acoustic technology (Echo550; nanoliter range). After incubation at room temperature for 20 minutes, the kinase reaction was initiated by addition of [^32P]-ATP (Specific activity 10 μCi/μL) and the mixture was incubated at room temperature for 2 hours. The reaction was then stopped by spotting the reaction mixture on strips of phosphocellulose P81 paper. Following washing, the radioactivity of the P81 paper was measured and kinase activity data were expressed as the percent remaining kinase activity in test samples compared to vehicle (dimethyl sulfoxide) reactions. IC50 values and curve fits were obtained using Prism (GraphPad Software).
# recombinant human Tyro3, sequence (Q06418 41-890): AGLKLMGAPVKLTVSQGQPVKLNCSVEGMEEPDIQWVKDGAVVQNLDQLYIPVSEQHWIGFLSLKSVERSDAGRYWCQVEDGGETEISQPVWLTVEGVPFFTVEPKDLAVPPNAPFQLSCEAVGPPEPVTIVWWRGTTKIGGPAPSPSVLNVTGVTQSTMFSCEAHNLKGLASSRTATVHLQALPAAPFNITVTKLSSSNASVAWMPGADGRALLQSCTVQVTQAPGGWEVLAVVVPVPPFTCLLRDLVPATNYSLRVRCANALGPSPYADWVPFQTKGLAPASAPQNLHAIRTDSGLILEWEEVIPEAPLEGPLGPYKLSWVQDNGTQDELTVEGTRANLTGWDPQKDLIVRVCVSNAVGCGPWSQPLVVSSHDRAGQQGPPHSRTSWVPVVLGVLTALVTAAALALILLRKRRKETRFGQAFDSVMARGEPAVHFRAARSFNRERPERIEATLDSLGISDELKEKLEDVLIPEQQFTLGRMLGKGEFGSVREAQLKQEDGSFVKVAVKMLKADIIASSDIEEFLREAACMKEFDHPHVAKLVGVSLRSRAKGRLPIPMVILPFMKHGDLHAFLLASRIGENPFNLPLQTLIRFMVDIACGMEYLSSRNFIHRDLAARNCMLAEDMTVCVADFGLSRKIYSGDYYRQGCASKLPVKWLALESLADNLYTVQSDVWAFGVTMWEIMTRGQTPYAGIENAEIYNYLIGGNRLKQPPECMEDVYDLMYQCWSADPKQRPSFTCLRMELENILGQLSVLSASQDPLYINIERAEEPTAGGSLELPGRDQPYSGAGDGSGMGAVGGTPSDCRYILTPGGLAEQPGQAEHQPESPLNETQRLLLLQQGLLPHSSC
row,Compound,IC50 [nM]
1,"COc1ccc(-c2c[nH]c3ncc(-c4cnn(C5CCN(C)CC5)c4)cc23)cn1 [Compound 1, 3-(6-methoxypyridin-3-yl)-5-(1-(1-methylpiperidin-4-yl)-1H-pyrazol-4-yl)-1H-pyrrolo[2,3-b]pyridine]",151 to 501
2,"COc1ccc(-c2c[nH]c3ncc(-c4cn(C5CCN(C)CC5)nc4OC)cc23)cn1 [Compound 2, 5-(3-methoxy-1-(1-methylpiperidin-4-yl)-1H-pyrazol-4-yl)-3-(6-methoxypyridin-3-yl)-1H-pyrrolo[2,3-b]pyridine]",< 50
3,"CCOc1nn(C2CCN(C)CC2)cc1-c1cnc2[nH]cc(-c3ccc(OC)nc3)c2c1 [Compound 3, 5-(3-ethoxy-1-(1-methylpiperidin-4-yl)-1H-pyrazol-4-yl)-3-(6-methoxypyridin-3-yl)-1H-pyrrolo[2,3-b]pyridine]",< 50
4,"COc1ccc(-c2c[nH]c3ncc(-c4cn(C5CCN(C)CC5)nc4F)cc23)cn1 [Compound 4, 5-(3-fluoro-1-(1-methylpiperidin-4-yl)-1H-pyrazol-4-yl)-3-(6-methoxypyridin-3-yl)-1H-pyrrolo[2,3-b]pyridine]",51 to 150
5,"COc1ccc(-c2c[nH]c3ncc(-c4ccn(C5CCN(C)CC5)n4)cc23)cn1 [Compound 6, 3-(6-methoxypyridin-3-yl)-5-(1-(1-methylpiperidin-4-yl)-1H-pyrazol-3-yl)-1H-pyrrolo[2,3-b]pyridine]",> 500
6,"COc1ccc(-c2c[nH]c3ncc(-c4ccnn4C4CCN(C)CC4)cc23)cn1 [Compound 7, 3-(6-methoxypyridin-3-yl)-5-(1-(1-methylpiperidin-4-yl)-1H-pyrazol-5-yl)-1H-pyrrolo[2,3-b]pyridine]",> 500
7,"COc1ccc(-c2c[nH]c3ncc(-c4cn(C5CCN(C)CC5)nc4C)cc23)cn1 [Compound 8, 3-(6-methoxypyridin-3-yl)-5-(3-methyl-1-(1-methylpiperidin-4-yl)-1H-pyrazol-4-yl)-1H-pyrrolo[2,3-b]pyridine]",151 to 501
8,"COc1nn(C2CCN(C)CC2)cc1-c1cnc2[nH]cc(-c3cccc(F)c3)c2c1 [Compound 10, 3-(3-fluorophenyl)-5-(3-methoxy-1-(1-methylpiperidin-4-yl)-1H-pyrazol-4-yl)-1H-pyrrolo[2,3-b]pyridine]",< 50
9,"COc1nn(C2CCN(C)C2)cc1-c1cnc2[nH]cc(-c3cccc(F)c3)c2c1 (stereo not shown) [Compound 12, 3-(3-fluorophenyl)-5-(3-methoxy-1-(1-methylpyrrolidin-3-yl)-1H-pyrazol-4-yl)-1H-pyrrolo[2,3-b]pyridine]",< 50
10,"COc1nn(C2CN(C)C2)cc1-c1cnc2[nH]cc(-c3cccc(F)c3)c2c1 [Compound 13, 3-(3-fluorophenyl)-5-(3-methoxy-1-(1-methylazetidin-3-yl)-1H-pyrazol-4-yl)-1H-pyrrolo[2,3-b]pyridine]",< 50
11,"COc1nn(C2CCCN(C)C2)cc1-c1cnc2[nH]cc(-c3cccc(F)c3)c2c1 (stereo not shown) [Compound 15, 3-(3-fluorophenyl)-5-(3-methoxy-1-(1-methylpiperidin-3-yl)-1H-pyrazol-4-yl)-1H-pyrrolo[2,3-b]pyridine]",151 to 501
12,"CN1CCC(n2cc(-c3cnc4[nH]cc(-c5cccc(C(F)F)c5)c4c3)c(F)n2)CC1 [Compound 17, 3-(3-(difluoromethyl)phenyl)-5-(3-fluoro-1-(1-methylpiperidin-4-yl)-1H-pyrazol-4-yl)-1H-pyrrolo[2,3-b]pyridine]",51 to 150
13,"CCOc1nn(C2CCN(C)CC2)cc1-c1cnc2[nH]cc(-c3ccc(C(F)F)nc3)c2c1 [Compound 19, 3-(6-(difluoromethyl)pyridin-3-yl)-5-(3-ethoxy-1-(1-methylpiperidin-4-yl)-1H-pyrazol-4-yl)-1H-pyrrolo[2,3-b]pyridine]",< 50
14,"COc1nn(C2CCN(C)CC2)cc1-c1cnc2[nH]cc(-c3ccnc(C(F)F)c3)c2c1 [Compound 20, 3-(2-(difluoromethyl)pyridin-4-yl)-5-(3-methoxy-1-(1-methylpiperidin-4-yl)-1H-pyrazol-4-yl)-1H-pyrrolo[2,3-b]pyridine]",< 50
15,"CCc1[nH]c2ncc(-c3cn(C4CCN(C)CC4)nc3OC)cc2c1-c1ccc(OC)nc1 [Compound 21, 2-ethyl-5-(3-methoxy-1-(1-methylpiperidin-4-yl)-1H-pyrazol-4-yl)-3-(6-methoxypyridin-3-yl)-1H-pyrrolo[2,3-b]pyridine]",51 to 150
16,"CCc1[nH]c2ncc(-c3cn(C4CCN(C)CC4)nc3OC)cc2c1-c1cccc(F)c1 [Compound 24, 2-ethyl-3-(3-fluorophenyl)-5-(3-methoxy-1-(1-methylpiperidin-4-yl)-1H-pyrazol-4-yl)-1/-pyrrolo[2,3-b]pyridine]",51 to 150

# The remaining lines, values ahead:
row,IC50 [nM],Compound
1,< 50,"COc1ccc(-c2c[nH]c3ncc(-c4cn(C5CCN(C)CC5)nc4Cl)cc23)cn1 [Compound 5, 5-(3-chloro-1-(1-methylpiperidin-4-yl)-1H-pyrazol-4-yl)-3-(6-methoxypyridin-3-yl)-1H-pyrrolo[2,3-b]pyridine]"
2,> 500,"COc1ccc(-c2c[nH]c3ncc(-c4cnn(C5CCN(C)CC5)c4C)cc23)cn1 [Compound 9, 3-(6-methoxypyridin-3-yl)-5-(5-methyl-1-(1-methylpiperidin-4-yl)-1H-pyrazol-4-yl)-1H-pyrrolo[2,3-b]pyridine]"
3,< 50,"CN1CCC(n2cc(-c3cnc4[nH]cc(-c5cccc(F)c5)c4c3)c(Cl)n2)CC1 [Compound 11, 5-(3-chloro-1-(1-methylpiperidin-4-yl)-1H-pyrazol-4-yl)-3-(3-fluorophenyl)-1H-pyrrolo[2,3-b]pyridine]"
4,< 50,"COc1nn(C2CCCN(C)CC2)cc1-c1cnc2[nH]cc(-c3cccc(F)c3)c2c1 (stereo not shown) [Compound 14, 3-(3-fluorophenyl)-5-(3-methoxy-1-(1-methylazepan-4-yl)-1H-pyrazol-4-yl)-1H-pyrrolo[2,3-b]pyridine]"
5,< 50,"COc1nn(C2CCN(C)CC2)cc1-c1cnc2[nH]cc(-c3cccc(C(F)F)c3)c2c1 [Compound 16, 3-(3-(difluoromethyl)phenyl)-5-(3-methoxy-1-(1-methylpiperidin-4-yl)-1H-pyrazol-4-yl)-1H-pyrrolo[2,3-b]pyridine]"
6,< 50,"CN1CCC(n2cc(-c3cnc4[nH]cc(-c5cccc(C(F)F)c5)c4c3)c(Cl)n2)CC1 [Compound 18, 5-(3-chloro-1-(1-methylpiperidin-4-yl)-1H-pyrazol-4-yl)-3-(3-(difluoromethyl)phenyl)-1H-pyrrolo[2,3-b]pyridine]"
7,51 to 150,"CCc1[nH]c2ncc(-c3cn(C4CCN(CC)CC4)nc3F)cc2c1-c1ccc(OC)nc1 [Compound 22, 2-ethyl-5-(1-(1-ethylpiperidin-4-yl)-3-fluoro-1H-pyrazol-4-yl)-3-(6-methoxypyridin-3-yl)-1H-pyrrolo[2,3-b]pyridine]"
8,51 to 150,"CCc1[nH]c2ncc(-c3cn(C4CCN(C)CC4)nc3Cl)cc2c1-c1ccc(OC)nc1 [Compound 23, 5-(3-chloro-1-(1-methylpiperidin-4-yl)-1H-pyrazol-4-yl)-2-ethyl-3-(6-methoxypyridin-3-yl)-1H-pyrrolo[2,3-b]pyridine]"
9,51 to 150,"CCc1[nH]c2ncc(-c3cn(C4CCN(C)CC4)nc3F)cc2c1-c1cccc(F)c1 [Compound 25, 2-ethyl-5-(3-fluoro-1-(1-methylpiperidin-4-yl)-1H-pyrazol-4-yl)-3-(3-fluorophenyl)-1H-pyrrolo[2,3-b]pyridine]"
